{
  "source": "patent US9707239B2",
  "about": "“Compounds that modulate oxidative stress” (vTv Therapeutics LLC, priority 2011, dated 2017)",
  "format_in_all_cases": "cell-based, human",
  "key": {"[1]": {"system": "NQO1", "assay": "mRNA expression (Quantigene Plex) in NHLF cells: NQO1", "conditions": "Table 5, 6 h, mRNA normalized to GAPDH, above DMSO treated cells", "procedure": "(§1) Secondary growth of NHLF cells were used for all assays. Cell were thawed and then placed into culture in T225 flasks. The cells were grown to 80% confluency and harvested by washing once with HEPES buffered saline solution and then trypsinizing. Equal numbers (7×10^3 cells per well) of NHLF cells were plated in 96 well tissue culture plates (Corning). Cells were incubated overnight in FGM-2 medium prior to exposure to compound. Cells were treated with either DMSO or a compound as described below for 6 h. Preparation of cell lysates was carried out according to instructions using the Quantigene Reagent system 2.0 protocol (Panomics). mRNA induction was detected from cell lysate using the Quantigene Plex 2.0 Assay Kit (Panomics) on the Luminex platform (BIO-RAD). Expression of GAPDH mRNA was used as the internal control for the Quantigen Plex 2.0 Assay. The data in Tables 5 and 6 represents the fold change of target mRNA expression, normalized to control values, above DMSO treated cells."}, "[2]": {"system": "ATF4", "assay": "mRNA expression (Quantigene Plex) in NHLF cells: ATF4", "conditions": "Table 5, 6 h, mRNA normalized to GAPDH, above DMSO treated cells", "procedure": "as §1"}, "[3]": {"system": "HMOX1", "assay": "HMOX1 protein expression by immunofluorescence (primary screen, high-content imaging)", "conditions": "NHLF cells", "procedure": "NHLF cells were grown to 80% confluency and harvested by washing once with HEPES and then trypsinizing. Equal numbers ([…]) of NHLF cells were plated in 384 well optilux tissue culture (BD) plates. Cells were incubated overnight in FGM-2 medium prior to exposure to compound. Cells were treated with either DMSO or compound for 16 h. Cells were wash 2× with 1×PBS and fix with 4% Paraformaldyhyde for 15 min. The fixed cells were then permeablized with 0.1% Triton X-100 and blocked with 5% BSA in 1× PBS 0.05% Tween-20 for 15 min. HO-1 antibody (abcam) was used for immunostaining at 1:300 dilution in 1% BSA in 1×PBS for 1 hr. Cells were washed 2× with 1×PBS and secondary antibody goat anti-mouse Alexa 488 1:400 dilution (Invitrogen); Hoechst 1:2000 (Invitrogen) in 1% BSA in 1×PBS for 1 hr. The plate was washed 5× with 1×PBS and read at Hoechst Excitation (“Ex.”) 360 Emission (“Em.”) 535; Alexa 488 Ex. 480 Em. 535 using GE InCell 1000. Results were analyzed using GE InCell Analyzer software and represented as the fold change above DMSO treated cells.\nA rapid, quantitative screening assay to detect HMOX1 levels in cells based on an immunofluorescent microscopy using an automated high-content imaging system was developed. […] The data are arrayed as in an IR chart with a calculated mean value for the plate and the 3-sigma upper and lower-confidence limits (UCL and LCL). […]"}, "[4]": {"system": "HMOX1", "assay": "mRNA expression (Quantigene Plex) in NHLF cells: HMOX1", "conditions": "Table 5, 6 h, mRNA normalized to GAPDH, above DMSO treated cells", "procedure": "as §1"}, "[5]": {"system": "GADD45A", "assay": "mRNA expression (Quantigene Plex) in NHLF cells: GADD45A", "conditions": "Table 5, 6 h, mRNA normalized to GAPDH, above DMSO treated cells", "procedure": "as §1"}, "[6]": {"system": "Keap1", "assay": "HMOX1 induction after Keap1 silencing (shRNA)", "conditions": "NHLF cells, FIG. 6", "procedure": "Normal human lung fibroblasts were plated in a 12-well tissue culture dish at 16,000 cells/well and allowed to attach overnight. Regular medium was then replaced with 200 μl of fresh growth medium containing 8 μg/ml hexadimethrine bromide (polybrene). Lentiviral transduction particles were then added in the following amounts: Control shRNA (1.1×10^7 TU/ml, Sigma, cat# SHC002V), 15 μl for an MOI of 10; KEAP-1 shRNA (6.3×10^6 TU/ml, Sigma, cat# SHCLNV-TRCN0000046092), 63 μl for an MOI of 20. After 4 hours in the cell culture incubator, another 200 μl of growth medium was added on top of the original volume. Cells were replenished the next day with fresh complete growth medium and were allowed to recover for 24 hours, after which selection medium was applied (complete medium with 1 μg/ml puromycin).\nAnother method of testing the role of the Nrf2 regulatory pathway on compound activity is to determine the effect of silencing Keap1 on HMOX1 gene expression. It is known that deleting Keap1 will result in the induction of Nrf2 dependent genes but not, to any significant degree, HMOX1. The proposed explanation for this observation is that HMOX1 requires the concomitant derepression of Bach1 activity and that this event is more dependent on active processes (e.g., heme binding, changes in redox potential of the cell, phosphorylation of Bach1, etc.). We therefore tested the ability of Compound 13 and tool compounds to induce HMOX1 in the presence of silencing of Keap1 in normal human lung fibroblasts.\nNormal human lung fibroblasts were tested with DMSO, CoPP, Compound 13, and two derivatives including Compound 4 and Compound 8. An electrophile, Compound 1, was also included in the test set. […] On the other hand, induction of HMOX1 by the electrophile Compound 1 was inhibited."}},
  "note": "“Also recorded” adds a separate entry of the source.",
  "data": [
    {"smiles": "O=C(Nc1ccc2cn[nH]c2c1)c1ccc2[nH]c(Nc3nc4ccccc4s3)nc2c1", "note": "[Compound 13, 2-(Benzothiazol-2-ylamino)-1H-benzoimidazole-5-carboxylic acid (1H-indazol-6-yl)-amide]", "values": [
      {"measurement": "NQO1 (fold induction)", "setting": "[1]", "result": "shown to induce"},
      {"measurement": "NQO1 (fold induction)", "setting": "[1]; listed as #13", "result": 2.2, "unit": "fold induction"},
      {"measurement": "ATF4 (fold induction)", "setting": "[2]", "result": 1.2, "unit": "fold induction"},
      {"measurement": "EC50", "setting": "[3]; Homo sapiens, immunofluorescence, dose response, FIG. 2, read-out: effective potency (HMOX1 induction)", "result": "< 1000", "unit": "nM"},
      {"measurement": "averaged signal intensity for HMOX1 staining versus upper confidence limit (UCL)", "setting": "[3]; primary screen, FIG. 1", "result": "significantly greater than the upper confidence limit"},
      {"measurement": "HMOX1 (fold induction)", "setting": "[4]", "result": 25, "unit": "fold induction"},
      {"measurement": "GADD45A (fold induction)", "setting": "[5]", "result": 0.89, "unit": "fold induction"},
      {"measurement": "HMOX1 induction in the presence of Keap1 silencing", "setting": "[6]", "result": "unaffected in their ability to induce HMOX1 in the presence of Keap1 silencing; also recorded: behaves similarly to CoPP induction"}
    ]}
  ]
}
